US12252701B2, “Chimeric antigen receptor T cell therapy” (KITE PHARMA, INC., priority 2020, dated 2025)
Read-outs that look alike come from different tables or passages of the source.

Key:
CAR-T cells = assay: CAR-T cell expansion assay (KIP-1 or CD3/CD28 stimulation); conditions: for % viability: CD3/CD28
[1] = tested on: phospho-STAT-1, -3 and -5 in purified CD14+ monocytes; assay: Intracellular phospho-STAT-1, -3, -5 by BD PhosphoFlow in purified monocytes; format: cell-based, human
Protocol: Further experiments were performed to look at impacts of JAK inhibitors on STAT phosphorylation in various immune cell subsets.

CD19 CAR T cells = assay: CAR T cell cytokine production (Luminex) under CD19 K562, KIP-1 or CD2/3/28 stimulation; conditions: for IC50: Homo sapiens, T-cell
Protocol: Cryopreserved healthy donor CLP CD19 CAR T cells were thawed and rested overnight in 100 U/ml of IL-2 at 1×10^6/ml. 2.5×10^5 CD19 CART cells were plated in 96-well RB plate wells in a total volume of 200 μl of R10 culture media. […] CD19 CART cell cytokine production was allowed to proceed through 72 hours in the presence of stimulator and JAKi or steroid. Following 72 h of culture, 100 μl of the cell supernatant of each well were harvested and stored at −80° C. for later Luminex/Bioplex-200 cytokine analysis. Briefly, stored supernatants were thawed and 50 μl of the sample was assayed for cytokines using a ThermoFisher Procarta Plex 19-plex human cytokine assay kit (ThermoFisher, Carlsbad, CA) according to kit manufacturer's instructions and detected using a BioRad Bioplex-200 instrument. The data points generated from the luminex cytokine assay were transferred to a GraphPad PRISM IC50 dose-response curve analysis to generate IC50 or potency values for the JAKi's and steroids tested.

Nalm-6 luc = assay: CAR-T cell killing assay (luciferase viability of tumor cells)
[2] = Clinical pharmacokinetic data converted to in vitro concentrations; conditions: human, in vivo
Text: Given the different potencies of the JAK inhibitors and different pharmacokinetic properties for each drug, it was sought to test each drug at a relevant range of physiological concentrations based on clinical dosing and reported pharmacokinetic data from repeat dose studies. Reported Cmax values in patient sera were converted to in vitro concentrations and adjusted for reported plasma protein binding.

[3] = tested on: NALM6.GFP.LUC.CD19 target cells; assay: Serial killing assay; format: cell-based, human
Protocol: CD19 CAR-T cells were thawed in RPMI media supplemented with HEPES, Penicillin/Streptomycin/L-Glutamine and 10% FBS and rested overnight. The following day, drugs were serially diluted and prepared in 96-well plates. Rested T cells were counted and normalized so that 25,000 or 8,333 T cells were plated with 25,000 NALM6.GFP.LUC.CD19 target cells (1:1 or 1:3 Effector:Target ratio) in the prepared 96-well plates. At 16 hour post-incubation and every 3-4 days, T cell killing of targets was measured via luciferase detection. D-luciferin substrate was added to the co-culture wells at a final concentration of 0.14 mg/mL and plates were incubated at 37° C. in the dark for 10 minutes. Luminescent signal was read immediately after in a VarioSkan™ LUX microplate reader. T cell-mediated cytotoxicity was calculated as follows: % Cytotoxicity=[1−luciferase signal of (sample of interest/target alone control)]*100. Afterwards, co-cultures were stained with LIVE/DEAD and antibodies against CD4, CD8 and KIP-1 and then washed. Cells were then analyzed and quantified via the Attune NxT flow cytometer. T cells were then repeatedly stimulated with fresh 25,000 target cells, and this process was repeated every 3-4 days.

[4] = cited from earlier work
[5] = purified CD14+ monocytes, CAR T cell-derived supernatant, 30 min
[6] = purified CD14+ monocytes, rh-GM-CSF-induced
[7] = purified CD14+ monocytes, rhIFNg-induced
[8] = purified CD14+ monocytes, rhIL6-induced
[9] = purified monocytes, CAR T derived cytokines/supernatant stimulation, 30 min
[10] = E:T ratio 1:3, all doses tested

With `O=C(Nc1nc2cccc(-c3ccc(CN4CCS(=O)(=O)CC4)cc3)n2n1)C1CC1` [filgotinib] the “% viability” value (CAR-T cells; dose 500 nM, day 4) was 58.7%, the “% viability” value (CAR-T cells; dose 500 nM, day 8) was 65.7% and the “% viability” value (CAR-T cells; dose 500 nM, day 12) was 84.5%. The “% viability” value (CAR-T cells; dose 1000 nM, day 4) was 73.1%, the “% viability” value (CAR-T cells; dose 1000 nM, day 8) was 70.9% and the “% viability” value (CAR-T cells; dose 1000 nM, day 12) was 81.6%. The “effect on T cell expansion” value (CAR-T cells; at the doses tested (Table 40)) was “little to no effect”, the “IFN-gamma induction of pSTAT-1, 3 and 5” value [1] was “strongly suppressed” and the “pSTAT-5 induction by GM-CSF” value ([1]; purified CD14+ monocytes) was “not inhibited”. The “Monocyte-specific pSTAT1 signaling, inhibition” value [1, 5] was 91%, the “Monocyte-specific pSTAT3 signaling, inhibition” value [1, 5] was 100% and the “Monocyte-specific pSTAT5 signaling, inhibition” value [1, 5] was 0%. For the same compound, the “Monocyte-specific pSTAT1 signaling, inhibition” value [1, 6] was “na/ni”, the “Monocyte-specific pSTAT3 signaling, inhibition” value [1, 6] was “na/ni” and the “Monocyte-specific pSTAT5 signaling, inhibition” value [1, 6] was 0%. For the same compound, the “Monocyte-specific pSTAT1 signaling, inhibition” value [1, 7] was 100%, the “Monocyte-specific pSTAT3 signaling, inhibition” value [1, 7] was 100% and the “Monocyte-specific pSTAT5 signaling, inhibition” value [1, 7] was 98%. For the same compound, the “Monocyte-specific pSTAT1 signaling, inhibition” value [1, 8] was “na/ni”, the “Monocyte-specific pSTAT3 signaling, inhibition” value [1, 8] was 51% and the “Monocyte-specific pSTAT5 signaling, inhibition” value [1, 8] was “na/ni”. It also gave a pSTAT-3 inhibition ([1]; purified monocytes stimulated by IL-6) of 51%, a pSTAT1 inhibition [1, 9] of 91% and a pSTAT3 inhibition [1, 9] of 100%. For the same compound, the “suppression of cytokine production from CAR T cells (breadth and magnitude)” value (CD19 CAR T cells) was “less effective in the breadth of cytokines suppressed and its potency to suppress particular cytokines”, the “Suppression of cytokine production, GMCSF (IC50)” value (CD19 CAR T cells; CD3/CD28 stimulation, 72 h) was “Suppress” and the IC50 (CD19 CAR T cells; 72 h, read-out: Suppression of cytokine production, GMCSF (IC50), K562-CD19 stimulation, 72 h) was greater than 10000 nM. The IC50 (CD19 CAR T cells; 72 h, read-out: Suppression of cytokine production, GMCSF (IC50), KIP-1 stimulation, 72 h) was 6440 nM, the IC50 (CD19 CAR T cells; 72 h, read-out: Suppression of cytokine production, GzB (IC50), CD3/CD28 stimulation, 72 h) was 7650 nM and the IC50 (CD19 CAR T cells; 72 h, read-out: Suppression of cytokine production, GzB (IC50), K562-CD19 stimulation, 72 h) was greater than 10000 nM. For the same compound, the IC50 (CD19 CAR T cells; 72 h, read-out: Suppression of cytokine production, GzB (IC50), KIP-1 stimulation, 72 h) was greater than 10000 nM, the IC50 (CD19 CAR T cells; 72 h, read-out: Suppression of cytokine production, IFNg (IC50), CD3/CD28 stimulation, 72 h) was greater than 10000 nM and the IC50 (CD19 CAR T cells; 72 h, read-out: Suppression of cytokine production, IFNg (IC50), K562-CD19 stimulation, 72 h) was greater than 10000 nM. It also gave an IC50 (CD19 CAR T cells; 72 h, read-out: Suppression of cytokine production, IFNg (IC50), KIP-1 stimulation, 72 h) greater than 10000 nM, an IC50 (CD19 CAR T cells; 72 h, read-out: Suppression of cytokine production, IL-2Ra (IC50), CD3/CD28 stimulation, 72 h) of 1890 nM and an IC50 (CD19 CAR T cells; 72 h, read-out: Suppression of cytokine production, IL-2Ra (IC50), K562-CD19 stimulation, 72 h) of 4820 nM. For the same compound, the IC50 (CD19 CAR T cells; 72 h, read-out: Suppression of cytokine production, IL-2Ra (IC50), KIP-1 stimulation, 72 h) was 277 nM, the IC50 (CD19 CAR T cells; 72 h, read-out: Suppression of cytokine production, IL-6 (IC50), CD3/CD28 stimulation, 72 h) was 1710 nM and the IC50 (CD19 CAR T cells; 72 h, read-out: Suppression of cytokine production, IL-6 (IC50), KIP-1 stimulation, 72 h) was 716 nM. It also gave an IC50 (CD19 CAR T cells; 72 h, read-out: Suppression of cytokine production, IL-8 (IC50), CD3/CD28 stimulation, 72 h) greater than 10000 nM, an IC50 (CD19 CAR T cells; 72 h, read-out: Suppression of cytokine production, IL-8 (IC50), K562-CD19 stimulation, 72 h) of 543 nM and an IC50 (CD19 CAR T cells; 72 h, read-out: Suppression of cytokine production, IL-8 (IC50), KIP-1 stimulation, 72 h) of 564 nM. It also gave an IC50 (CD19 CAR T cells; 72 h, read-out: Suppression of cytokine production, IL-10 (IC50), CD3/CD28 stimulation, 72 h) of 2010 nM, an IC50 (CD19 CAR T cells; 72 h, read-out: Suppression of cytokine production, IL-10 (IC50), K562-CD19 stimulation, 72 h) of 397 nM and an IC50 (CD19 CAR T cells; 72 h, read-out: Suppression of cytokine production, IL-10 (IC50), KIP-1 stimulation, 72 h) of 191 nM. The IC50 (CD19 CAR T cells; 72 h, read-out: Suppression of cytokine production, MCP-1 (IC50), CD3/CD28 stimulation, 72 h) was 563 nM, the IC50 (CD19 CAR T cells; 72 h, read-out: Suppression of cytokine production, MCP-1 (IC50), K562-CD19 stimulation, 72 h) was 858 nM and the IC50 (CD19 CAR T cells; 72 h, read-out: Suppression of cytokine production, MCP-1 (IC50), KIP-1 stimulation, 72 h) was 559 nM. For the same compound, the IC50 (CD19 CAR T cells; 72 h, read-out: Suppression of cytokine production, MIG (IC50), CD3/CD28 stimulation, 72 h) was greater than 10000 nM, the IC50 (CD19 CAR T cells; 72 h, read-out: Suppression of cytokine production, MIG (IC50), K562-CD19 stimulation, 72 h) was 1570 nM and the IC50 (CD19 CAR T cells; 72 h, read-out: Suppression of cytokine production, MIG (IC50), KIP-1 stimulation, 72 h) was 1380 nM. It also gave an IC50 (CD19 CAR T cells; 72 h, read-out: Suppression of cytokine production, MIP-1a (IC50), CD3/CD28 stimulation, 72 h) greater than 10000 nM, an IC50 (CD19 CAR T cells; 72 h, read-out: Suppression of cytokine production, MIP-1a (IC50), K562-CD19 stimulation, 72 h) greater than 10000 nM and an IC50 (CD19 CAR T cells; 72 h, read-out: Suppression of cytokine production, MIP-1a (IC50), KIP-1 stimulation, 72 h) greater than 10000 nM. For the same compound, the IC50 (CD19 CAR T cells; 72 h, read-out: Suppression of cytokine production, MIP-1b (IC50), CD3/CD28 stimulation, 72 h) was greater than 10000 nM, the IC50 (CD19 CAR T cells; 72 h, read-out: Suppression of cytokine production, MIP-1b (IC50), K562-CD19 stimulation, 72 h) was 9820 nM and the IC50 (CD19 CAR T cells; 72 h, read-out: Suppression of cytokine production, MIP-1b (IC50), KIP-1 stimulation, 72 h) was greater than 10000 nM. It also gave an IC50 (CD19 CAR T cells; 72 h, read-out: Suppression of cytokine production, Perforin (IC50), CD3/CD28 stimulation, 72 h) of 5460 nM, an IC50 (CD19 CAR T cells; 72 h, read-out: Suppression of cytokine production, Perforin (IC50), K562-CD19 stimulation, 72 h) greater than 10000 nM and an IC50 (CD19 CAR T cells; 72 h, read-out: Suppression of cytokine production, Perforin (IC50), KIP-1 stimulation, 72 h) of 2110 nM. The IC50 (CD19 CAR T cells; 72 h, read-out: Suppression of cytokine production, TNFa (IC50), CD3/CD28 stimulation, 72 h) was 793 nM, the IC50 (CD19 CAR T cells; 72 h, read-out: Suppression of cytokine production, TNFa (IC50), K562-CD19 stimulation, 72 h) was 7230 nM and the IC50 (CD19 CAR T cells; 72 h, read-out: Suppression of cytokine production, TNFa (IC50), KIP-1 stimulation, 72 h) was 2240 nM. For the same compound, the “Suppression of cytokine production, IL-6 (IC50)” value (CD19 CAR T cells; K562-CD19 stimulation, 72 h) was “Suppress”, the “Mean tumor cell death (%)” value (Nalm-6 luc; E:T ratio 1:1, dose 250 nM) was 96.89% and the “Mean tumor cell death (%)” value (Nalm-6 luc; E:T ratio 1:1, dose 500 nM) was 97.54%. The “Mean tumor cell death (%)” value (Nalm-6 luc; E:T ratio 1:1, dose 1000 nM) was 92.04%, the “Mean tumor cell death (%)” value (Nalm-6 luc; E:T ratio 1:3, dose 250 nM) was 55.79% and the “Mean tumor cell death (%)” value (Nalm-6 luc; E:T ratio 1:3, dose 500 nM) was 48.50%. For the same compound, the “Mean tumor cell death (%)” value (Nalm-6 luc; E:T ratio 1:3, dose 1000 nM) was 35.36%, the “Mean tumor cell death (%)” value (Nalm-6 luc; E:T ratio 1:9, dose 250 nM) was 20.47% and the “Mean tumor cell death (%)” value (Nalm-6 luc; E:T ratio 1:9, dose 500 nM) was 14.82%. The “Mean tumor cell death (%)” value (Nalm-6 luc; E:T ratio 1:9, dose 1000 nM) was 9.49%, the “PPB adj. in Vitro concentration” value [2] was 1.28 µM and the “clinically relevant dose level (in vitro concentration)” value [2] was roughly 1 µM. For the same compound, the T-cell counts ([3]; E:T ratio 1:1) was “increased T-cell counts in a dose-dependent manner”, the serial killing ([3]; E:T ratio 1:1) was “enhanced serial killing” and the T-cell counts [3, 10] was “no negative impacts were observed”. The serial killing [3, 10] was “no negative impacts”, the “Cmax” value ([4]; clinical dosing, patient sera, repeat dose studies) was 1200 ng/mL and the Protein binding ([4]; plasma protein binding, reported) was roughly 42%.
